The results in this text go back to PMC6792352, “Limited Chemical Structural Diversity Found to Modulate Thyroid Hormone Receptor in the Tox21 Chemical Library” (Environmental Health Perspectives, 2019).

The subject of one data set is GH3-TRE-Luc cell line. The following applies: read-out: AC50 (uM) modified / 1000, viability, 1 nM T3 present, 24 h.
Another data set is described as follows: in vitro. The conditions noted are these: rat, gh3-tre-luc cells.

The structures appear in SMILES notation. Where a name gives a salt, the structure may show the parent alone. Read-outs that look alike come from different tables or passages of the source.

As for `Cc1cc(C(C)(C)C)c(O)c(C(C)(C)C)c1` [Butylated hydroxytoluene], the CC50 was 42.9 µM in the data set on GH3-TRE-Luc cell line (Tox21_110001=Tox21_113537) and 76.4 µM with GH3-TRE-Luc cell line (Tox21_110001=Tox21_201093).
For the molecule `O=C1C2CC=CCC2C(=O)N1SC(Cl)(Cl)Cl` (stereo not shown) [Captan], the CC50 in the data set with GH3-TRE-Luc cell line (Tox21_110001=Tox21_111065) worked out at 4.99 µM; with GH3-TRE-Luc cell line (Tox21_110001=Tox21_201276) it was 76 µM; in the data set with GH3-TRE-Luc cell line (Tox21_110001=Tox21_300772), 2.54 µM.
Regarding `CC/N=c1\cc2oc3cc(NCC)c(C)cc3c(-c3ccccc3C(=O)OCC)c-2cc1C` [Rhodamine 6G], the CC50 in the data set with GH3-TRE-Luc cell line (Tox21_110001=Tox21_201597) is 0.49 µM; in the data set with GH3-TRE-Luc cell line (Tox21_110001=Tox21_302898), 1.44 µM.
As to `Nc1ccc(/N=N/c2ccccc2)c(N)n1` [Phenazopyridine hydrochloride], the CC50 with GH3-TRE-Luc cell line (Tox21_110001=Tox21_110829) was found to be 18.5 µM; in the data set on GH3-TRE-Luc cell line (Tox21_110001=Tox21_202153) it was 45.2 µM; with GH3-TRE-Luc cell line (Tox21_110001=Tox21_302738), 44.8 µM.
Consider `NC[C@H]1O[C@H](O[C@H]2[C@H](O)[C@@H](O[C@H]3O[C@H](CO)[C@@H](O)[C@H](N)[C@H]3O)[C@H](N)C[C@@H]2N)[C@H](O)[C@@H](O)[C@@H]1O` [Kanamycin A sulfate], for which, in the data set on GH3-TRE-Luc cell line (Tox21_110001=Tox21_202817), the CC50 was 3.08 µM.
For the molecule `C[C@]12CC[C@@H]3c4ccc(O)cc4C[C@@H](CCCCCCCCC[S+]([O-])CCCC(F)(F)C(F)(F)F)[C@H]3[C@@H]1CC[C@@H]2O` (stereo partly shown) [Fulvestrant], the CC50 came out at 0.00438 µM in the data set with GH3-TRE-Luc cell line (Tox21_110001=Tox21_110939), 0.00683 µM with GH3-TRE-Luc cell line (Tox21_110001=Tox21_202604) and 2.26 µM with GH3-TRE-Luc cell line (Tox21_110001=Tox21_303656).
`CCCCCCCCCCCCn1cc[n+](C)c1` [1-Dodecyl-3-methylimidazolium trifluoromethanesulfonate]: in the data set on GH3-TRE-Luc cell line (Tox21_110001=Tox21_202630), the CC50 was 3.74 µM.
For the molecule `CCN1/C(=C/C=C/C=C/c2sc3ccccc3[n+]2CC)Sc2ccccc21` [Dithiazanine chloride], the CC50 with GH3-TRE-Luc cell line (Tox21_110001=Tox21_113171) amounted to 7.02 µM.
For the molecule `CCCCCCCCCCCC[N+](C)(C)Cc1ccccc1` [Benzyldodecyldimethylammonium bromide], the CC50 with GH3-TRE-Luc cell line (Tox21_110001=Tox21_113091) was found to be 5.39 µM.
As to `Nc1nc(Cl)nc2c1ncn2[C@H]1C[C@H](O)[C@@H](CO)O1` [Cladribine], the results for the CC50 with GH3-TRE-Luc cell line (Tox21_110001=Tox21_110834) and in the data set on GH3-TRE-Luc cell line (Tox21_110001=Tox21_300596) were 0.386 µM and 0.166 µM, respectively.
For the molecule `CC(C)Nc1ccc(Nc2ccccc2)cc1` [N-Isopropyl-N'-phenyl-p-phenylenediamine], the CC50 was found to be 13.5 µM in the data set with GH3-TRE-Luc cell line (Tox21_110001=Tox21_111169), 36.2 µM in the data set on GH3-TRE-Luc cell line (Tox21_110001=Tox21_201424) and 33.4 µM in the data set with GH3-TRE-Luc cell line (Tox21_110001=Tox21_303202).
Regarding `COc1ccc(CCN2CCC(Nc3nc4ccccc4n3Cc3ccc(F)cc3)CC2)cc1` [Astemizole], the values for the CC50 with GH3-TRE-Luc cell line (Tox21_110001=Tox21_110680) and in the data set on GH3-TRE-Luc cell line (Tox21_110001=Tox21_200095) were 4.42 µM and 0.889 µM, respectively.
Consider `CCCSc1ccc2nc(NC(=O)OC)[nH]c2c1` [Albendazole], for which the CC50 in the data set on GH3-TRE-Luc cell line (Tox21_110001=Tox21_110659) was 0.271 µM.
Consider `CCOc1ccc2c(c1)C(C)=CC(C)(C)N2` [Ethoxyquin], for which, in the data set with GH3-TRE-Luc cell line (Tox21_110001=Tox21_110388), the CC50 was determined as 39.8 µM.
On to `Cc1c(C)c2c(c(C)c1OC(=O)CCC(=O)O)CC[C@@](C)(CCC[C@H](C)CCC[C@H](C)CCCC(C)C)O2` [d-alpha-Tocopheryl succinate], for which, in the data set on GH3-TRE-Luc cell line (Tox21_110001=Tox21_200568), the CC50 worked out at 20 µM.
For the molecule `Cc1ncc[nH]1` [2-Methylimidazole], the CC50 in the data set on GH3-TRE-Luc cell line (Tox21_110001=Tox21_111136) amounted to 0.0572 µM.
For the molecule `CN1CCCCC1CCN1c2ccccc2Sc2ccc([S+](C)[O-])cc21` (stereo not shown) [Mesoridazine], the CC50 with GH3-TRE-Luc cell line (Tox21_110001=Tox21_112018) was 18.9 µM.
For `Oc1cc(Cl)ccc1Oc1ccc(Cl)cc1Cl` [Triclosan], the CC50 came to 50.4 µM in the data set with GH3-TRE-Luc cell line (Tox21_110001=Tox21_111648) and 13.3 µM in the data set with GH3-TRE-Luc cell line (Tox21_110001=Tox21_400079).
Take `CC/C(=C(\c1ccc(O)cc1)c1ccc(OCCN(C)C)cc1)c1ccccc1` [(Z)-4-Hydroxytamoxifen]: the CC50 in the data set on GH3-TRE-Luc cell line (Tox21_110001=Tox21_200943) came to 5.77 µM.
Take `CCCCCCCCCCCCCCn1cc[n+](C)c1` [1-Methyl-3-tetradecylimidazolium chloride]: the CC50 with GH3-TRE-Luc cell line (Tox21_110001=Tox21_202660) turned out to be 8.43 µM.
`CCCOC(=O)CCCCC(=O)OCCC` [Dipropyl hexanedioate] showed a CC50 at 24 h in “in vitro” (AC50 (uM) modified / 1000) above 90 µM.
Still for that read-out and setting: for `COCC(C)OCC(C)O` (stereo not shown) [Dipropylene glycol monomethyl ether] the value was above 90 µM.
With `C=CCn1c(=O)n([C@@H]2O[C@H](CO)[C@@H](O)[C@H]2O)c2nc(N)[nH]c(=O)c21` [Loxoribine], in the data set “in vitro” (AC50 (uM) modified / 1000), the CC50 at 24 h is above 50 µM.
Molecule `Nc1ccc([N+](=O)[O-])cc1` [4-Nitroaniline] displayed a CC50 at 24 h in the data set “in vitro” (AC50 (uM) modified / 1000) above 90 µM.
For `C=C(C)C(=O)OCCCCCCOC(=O)C(=C)C` [1,6-Hexanediol dimethacrylate], in the data set “in vitro” (AC50 (uM) modified / 1000), the CC50 at 24 h was above 90 µM.
Still for that read-out and setting: for `CC1(C)CCC(C)(C)c2cc(C(=O)Nc3ccc(C(=O)O)cc3)ccc21` [AM580] the value was 66.2 µM; for `Oc1ccc(-c2ccc(O)cc2)cc1` [4,4'-Biphenyldiol], above 90 µM; for `[O-][n+]1ccccc1SSc1cccc[n+]1[O-]` [Dipyrithione], 0.205 µM.
As to `COc1ccc(OC)c(C[C@H](C)N)c1` [(2S)-1-(2,5-Dimethoxyphenyl)propan-2-amine hydrogen chloride (1:1)], the CC50 at 24 h in the data set “in vitro” (AC50 (uM) modified / 1000, Tox21_110001=Tox21_112851, viability, 1 nM T3 present, 24 h) is above 100 µM.
`CC(C)S` [Isopropyl mercaptan] yielded a CC50 at 24 h in “in vitro” (AC50 (uM) modified / 1000) above 90 µM.
Still for that read-out and setting: the value for `C/C=C/C(=O)Oc1ccccc1[N+](=O)[O-]` [Dinocap] was 14.3 µM; that for `N[C@@H](CCC(=O)N[C@@H](CS)C(=O)NCC(=O)O)C(=O)O` [Glutathione] was above 50 µM.
In the case of `CCN(CC#N)c1cccc(C)c1` [2-(Ethyl(3-methylphenyl)amino)acetonitrile], the CC50 at 24 h in the data set “in vitro” (AC50 (uM) modified / 1000) is above 90 µM.
Still for that read-out and setting: the value for `C[N+]1(C)[C@@H]2CC(OC(=O)[C@H](CO)c3ccccc3)C[C@H]1[C@@H]1O[C@@H]12` (stereo partly shown) [Scopolamine methylbromide] was above 50 µM.
In the case of `CC(=O)C=C(C)C` [4-Methylpent-3-en-2-one], the CC50 at 24 h in “in vitro” (AC50 (uM) modified / 1000, Tox21_110001=Tox21_202080, viability, 1 nM T3 present, 24 h) is above 100 µM; in the data set “in vitro” (AC50 (uM) modified / 1000, Tox21_110001=Tox21_303606, viability, 1 nM T3 present, 24 h), above 90 µM.
Regarding `COc1ccc(Cc2nccc3cc(OC)c(OC)cc23)cc1OC` [Papaverine hydrochloride], in “in vitro” (AC50 (uM) modified / 1000), the CC50 at 24 h is above 20 µM.
Still for that read-out and setting: the value for `CC(C)(COC(=O)c1ccccc1)COC(=O)c1ccccc1` [Neopentyl glycol dibenzoate] was above 90 µM; that for `CC(C(=O)O)c1ccc(N2Cc3ccccc3C2=O)cc1` (stereo not shown) [Indoprofen] was above 50 µM; that for `Cc1ccc(-n2nc(C(C)(C)C)cc2NC(=O)Nc2ccc(OCCN3CCOCC3)c3ccccc23)cc1` [Doramapimod] was above 50 µM.
On the same count and under the same terms, the value for `CC(=O)c1ccc[nH]1` [2-Acetylpyrrole] was above 90 µM; that for `c1ccc2cc3ccccc3cc2c1` [Anthracene] was above 90 µM; that for `OC[C@H]1O[C@@H](n2cnc3c(O)ncnc32)[C@H](O)[C@@H]1O` [Inosine] was above 50 µM.
Still for that read-out and setting: for `O=C1CCCCCCCCCCCCCCO1` [Pentadecan-15-olide] the value was above 90 µM; for `N=C(N)NCC1COc2ccccc2O1` (stereo not shown) [Guanoxan], above 50 µM.
